Reference: patent US7205305B2, “Inhibitors of p38” (Vertex Pharmaceuticals Incorporated, priority 1996, dated 2007)

Legend:
activated p38 = activated p38 (Homo sapiens, UniProt Q16539); assay: Inhibition of phosphorylation of EGF receptor peptide ("kinase"); type: biochemical; conditions: inhibition of phosphorylation of EGF receptor peptide by activated p38
In short: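 Activated p38 was preincubated with inhibitor for 15 min at room temperature in 100 mM HEPES pH 7.6, 10 mM MgCl2, 25 mM β-glycerophosphate, 10% glycerol, 5% DMSO final. Reaction used 200 μM EGF receptor peptide and 100 μM ATP for 30 min at 30° C. TFA-quenched phosphopeptide was quantified by reverse-phase HPLC.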

[1] = system: IL-1 production in LPS-stimulated PBMCs; assay: Inhibition of IL-1 production in LPS-stimulated PBMCs ("cell"); type: cell-based, human; conditions: Homo sapiens, PBMC
In short: (§1)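 Human PBMCs (4.8×10^6 cells/ml, RPMI1640/10% FBS) pre-treated with inhibitor dilutions, then stimulated with 4 ng/ml LPS final and incubated overnight (12–15 h) at 37 °C/5% CO2. Supernatant IL-1β and TNF-α measured by ELISA; IC50 from dose-response curves.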

[2] = system: TNF production in LPS-stimulated PBMCs; assay: Inhibition of TNF production in LPS-stimulated PBMCs ("cell"); type: cell-based, human; conditions: Homo sapiens, PBMC
In short: as §1

[3] = system: IL-1 production in whole blood; assay: Inhibition of IL-1 production in LPS-stimulated whole blood ("WB"); type: cell-based, human; conditions: Homo sapiens
Experimental: (§2) Inhibitors were serially diluted in DMSO from a 20 mM stock. At least 6 serial dilutions were prepared. Then 4× inhibitor stocks were prepared by adding 4 μl of an inhibitor dilution to 1 ml of RPMI1640 medium/10% fetal bovine serum. The 4× inhibitor stocks contained inhibitor at concentrations of 80 μM, 32 μM, 12.8 μM, 5.12 μM, 2.048 μM, 0.819 μM, 0.328 μM, 0.131 μM, 0.052 μM, 0.021 μM etc. The 4× inhibitor stocks were pre-warmed at 37° C. until use.
(§3) Alternatively, whole blood containing an anti-coagulant was used directly in the assay.
(§4) We placed 100 μl of cell suspension or whole blood in each well of a 96-well cell culture plate. Then we added 50 μl of the 4× inhibitor stock to the cells. Finally, we added 50 μl of a lipopolysaccharide (LPS) working stock solution (16 ng/ml in cell culture medium) to give a final concentration of 4 ng/ml LPS in the assay. The total assay volume of the vehicle control was also adjusted to 200 μl by adding 50 μl cell culture medium. The PBMC cells or whole blood were then incubated overnight (for 12–15 hours) at 37° C./5% CO2 in a humidified atmosphere.
(§5) The next day the cells were mixed on a shaker for 3–5 minutes before centrifugation at 500×g for 5 minutes. Cell culture supernatants were harvested and analyzed by ELISA for levels of IL-1b (R & D Systems, Quantikine kits, #DBL50), TNF-α (BioSource, #KHC3012), IL-6 (Endogen, #EH2-IL6) and IL-8 (Endogen, #EH2-IL8) according to the instructions of the manufacturer. The ELISA data were used to generate dose-response curves from which IC50 values were derived.

[4] = system: TNF production in whole blood; assay: Inhibition of TNF production in LPS-stimulated whole blood ("WB"); type: cell-based, human; conditions: Homo sapiens
Experimental: as §2, §3, §4, §5

[5] = system: IL-6 production in whole blood; assay: Inhibition of IL-6 production in LPS-stimulated whole blood ("WB"); type: cell-based, human; conditions: Homo sapiens
Experimental: as §2, §3, §4, §5

Chain of activated p38 (Q16539 whole entry): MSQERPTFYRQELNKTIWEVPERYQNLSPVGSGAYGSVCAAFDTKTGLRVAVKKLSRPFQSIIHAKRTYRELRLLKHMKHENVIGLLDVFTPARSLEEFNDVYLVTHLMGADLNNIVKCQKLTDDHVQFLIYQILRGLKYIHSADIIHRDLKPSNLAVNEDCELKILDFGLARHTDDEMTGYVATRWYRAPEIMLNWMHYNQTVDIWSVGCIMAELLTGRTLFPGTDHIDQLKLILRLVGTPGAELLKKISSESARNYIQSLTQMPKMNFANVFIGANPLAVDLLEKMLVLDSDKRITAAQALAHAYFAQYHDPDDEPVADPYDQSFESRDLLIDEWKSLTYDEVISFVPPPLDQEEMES

For `NC(=O)C(c1cccc(-c2ccccc2)n1)c1c(F)cccc1Cl` (stereo not drawn) [Compound 306], the IC50 (activated p38) was 100 to 1000 nM, the IC50 [1] was 100 to 500 nM and the IC50 [2] was at least 500 nM. It also gave an IC50 [3] of at least 500 nM, an IC50 [4] of at least 500 nM and an IC50 [5] of at least 500 nM.
`NC(=O)C(c1cccc(-c2ccccc2CO)n1)c1c(Cl)cccc1Cl` (stereo not drawn) [Compound 302] was tested, and the IC50 (activated p38) was at most 100 nM, the IC50 [1] was at most 100 nM and the IC50 [2] was 100 to 500 nM. The IC50 [3] was at least 500 nM, the IC50 [4] was at least 500 nM and the IC50 [5] was at least 500 nM.
`Cc1cccc(-c2cccc(C(C(N)=O)c3c(F)cccc3Cl)n2)c1` (stereo not drawn) [Compound 332] gave an IC50 (activated p38) of 100 to 1000 nM, an IC50 [1] of 100 to 500 nM and an IC50 [2] of at least 500 nM. The IC50 [3] was at least 500 nM, the IC50 [4] was at least 500 nM and the IC50 [5] was at least 500 nM.
In the case of `NC(=O)C(c1cccc(-c2ccccc2/C=N\O)n1)c1c(Cl)cccc1Cl` (stereo not drawn) [Compound 307], the IC50 (activated p38) is reported as at most 100 nM, the IC50 [1] is reported as 100 to 500 nM and the IC50 [2] is reported as at least 500 nM. The IC50 [3] was at least 500 nM, the IC50 [4] was at least 500 nM and the IC50 [5] was at least 500 nM.
Work on `O=C1NCN2N=C(Sc3ccccc3CNc3ncc[nH]3)C=CC2=C1c1c(Cl)cccc1Cl` [Compound 123] yielded an IC50 (activated p38) of 100 to 1000 nM, an IC50 [1] of 100 to 500 nM and an IC50 [2] of 100 to 500 nM. For the same compound, the IC50 [3] was at least 500 nM, the IC50 [4] was at least 500 nM and the IC50 [5] was at least 500 nM.
`Cc1cc(Cl)ccc1SC1=NN2CNC(=O)C(c3c(Cl)cccc3Cl)=C2C=C1` [Compound 106] showed an IC50 (activated p38) of at most 100 nM, an IC50 [1] of at most 100 nM and an IC50 [2] of at most 100 nM. It also gave an IC50 [3] of at least 500 nM, an IC50 [4] of 250 to 500 nM and an IC50 [5] of 250 to 500 nM.
`CC(C)(C)OC(=O)Nc1ccccc1SC1=NN2CNC(=O)C(c3c(Cl)cccc3Cl)=C2C=C1` [Compound 112] gave an IC50 (activated p38) of 100 to 1000 nM, an IC50 [1] of 100 to 500 nM and an IC50 [2] of at least 500 nM. It also gave an IC50 [3] of at least 500 nM, an IC50 [4] of at least 500 nM and an IC50 [5] of at least 500 nM.
With `Cc1ccccc1Sc1ccc2c(-c3c(Cl)cccc3Cl)c(=O)ncn2n1` [Compound 23] the IC50 (activated p38) was 100 to 1000 nM, the IC50 [1] was 100 to 500 nM and the IC50 [2] was at least 500 nM. The IC50 [3] was at least 500 nM, the IC50 [4] was at least 500 nM and the IC50 [5] was at least 500 nM.
For `COc1cc(Cl)c(C2=C3C=CC(Sc4ccc(F)cc4)=NN3CNC2=O)cc1O` [Compound 135], the IC50 (activated p38) was at most 100 nM, the IC50 [1] was 100 to 500 nM and the IC50 [2] was at least 500 nM. The IC50 [3] was at least 500 nM, the IC50 [4] was at least 500 nM and the IC50 [5] was at least 500 nM.
`O=c1ncn2nc(Sc3ccc(F)cc3)ccc2c1-c1c(Cl)cccc1Cl` [Compound 12] showed an IC50 (activated p38) of 100 to 1000 nM, an IC50 [1] of 100 to 500 nM and an IC50 [2] of 100 to 500 nM. For the same compound, the IC50 [3] was at least 500 nM, the IC50 [4] was at least 500 nM and the IC50 [5] was at least 500 nM.
Work on `CN(C)/C=N\c1ccc(C2=C3C=CC(Sc4ccc(F)cc4Cl)=NN3CNC2=O)c(Cl)c1` [Compound 140] yielded an IC50 (activated p38) of at most 100 nM, an IC50 [1] of at most 100 nM and an IC50 [2] of at most 100 nM. The IC50 [3] was 250 to 500 nM, the IC50 [4] was at least 500 nM and the IC50 [5] was 250 to 500 nM.
`Cc1ccccc1-c1cccc(N(C(N)=O)c2c(Cl)cccc2Cl)n1` [Compound 402] showed an IC50 (activated p38) of at most 100 nM, an IC50 [1] of at most 100 nM and an IC50 [2] of at most 100 nM. The IC50 [3] was at least 500 nM, the IC50 [4] was at least 500 nM and the IC50 [5] was at least 500 nM.
With `O=C1NCN2N=C(Sc3ccccc3CO)C=CC2=C1c1c(Cl)cccc1Cl` [Compound 108] the IC50 (activated p38) was at most 100 nM, the IC50 [1] was 100 to 500 nM and the IC50 [2] was at most 100 nM. The IC50 [3] was 250 to 500 nM, the IC50 [4] was at most 250 nM and the IC50 [5] was at most 250 nM.
In the case of `O=c1ncn2nc(Sc3ccc(F)cc3Cl)ccc2c1-c1c(Cl)cccc1Cl` [Compound 38], the IC50 (activated p38) is reported as at most 100 nM, the IC50 [1] is reported as at most 100 nM and the IC50 [2] is reported as 100 to 500 nM. For the same compound, the IC50 [3] was 250 to 500 nM, the IC50 [4] was 250 to 500 nM and the IC50 [5] was 250 to 500 nM.
With `Nc1cc(F)ccc1SC1=NN2CNC(=O)C(c3c(Cl)cccc3Cl)=C2C=C1` [Compound 117] the IC50 (activated p38) was at most 100 nM, the IC50 [1] was at most 100 nM and the IC50 [2] was at most 100 nM. The IC50 [3] was 250 to 500 nM, the IC50 [4] was 250 to 500 nM and the IC50 [5] was at most 250 nM.
